Entries after “also recorded” stand apart in the source; their conditions may differ.
Legend:
[1] = test system: lamina propria CD4+ T cells (Th17, Treg); assay: Anti-CD3 injection gut inflammation model, bile acid diet; type: in vivo, mouse; details: 1% diet
Protocol: (§1) Data are shown as the mean±standard deviation by unpaired t-test with 2-tailed p-value.
Cells were then analyzed by flow cytometry.

[2] = test system: naïve CD4+ T cells; assay: Cell proliferation assay (CFSE); type: cell-based, mouse; details: 3 days, vs DMSO
Protocol: Data are representative of two independent experiments (b, d).
Cell Proliferation Assay. Naïve CD4^+ T cells were labeled with 1 μM carboxyfluorescein succinimidyl ester (CFSE, BioLegend) and cultured for 3 days prior to FACS analysis.

[3] = test system: CD4+ T cells; assay: TCR activation markers (CD25, CD69, Nur77, CD44); type: cell-based, mouse
Excerpt: Representative FACS plots of CD4^+ T cells cultured for 3 days and stained intracellularly for FoxP3 (e). Quantification of FoxP3^+ and viable T cells after 3-day culture (f) (n=2/group). n, number of biologically independent samples. Data are representative of two independent experiments (b, d). Data in (c) are shown as the mean±standard deviation.

[4] = test system: naïve CD4+ T cells (Treg differentiation, FoxP3); assay: In vitro Treg differentiation, FoxP3 staining by flow cytometry; type: cell-based, mouse
Excerpt: To determine if bile acids influence T cell functions, the present inventors performed a small-scale screening assay with a small molecule library comprising secondary bile acids with in vitro Treg differentiation as a read-out. Naïve CD4^+ T lymphocytes were sorted from wild-type B6 mice and cultured in the presence of a TCR stimulus, interleukin 2 (IL-2), and different amounts of TGFβ (optimized for Treg differentiation). Treg differentiation was quantified at the single cell level by staining with an antibody specific for FoxP3, followed by flow cytometry analysis. Retinoic acid, a known enhancer of Treg differentiation, was used as a positive control.
Our screen included both primary bile acids, synthesized by the host, and secondary bile acids, produced by bacterial modification of primary bile acids (FIG. 5). Naïve CD4^+ T cells were isolated from wild-type C57BL/6J (B6) mice and cultured with bile acids under Th17 differentiation conditions and, as a counter-screen, Treg differentiation conditions (FIG. 6).
In Vitro T Cell Culture. Naïve CD4^+ (CD62L^+ CD44^− CD25^− CD4^+) T cells were isolated from the spleens and the lymph nodes of mice of designated genotypes with FACS sorting. For certain experiments, naïve CD4^+ T cells were enriched using naïve CD4^+ T cell isolation kits (Miltenyi). Naïve CD4^+ T cells (40,000 cells) were cultured in a 96-well plate pre-coated with hamster IgG (MP Biomedicals) in T cell medium (RPMI, 10% fetal bovine serum, 25 mM glutamine, 55 μM 2-mercaptoethanol, 100 U/mL penicillin, […] streptomycin) supplemented with 0.25 μg/mL anti-CD3 (clone 145-2C11) and 1 μg/mL anti-CD28 (clone 37.51). For Th0 culture, T cells were cultured with the addition of 100 U/mL of IL-2 (PEPROTECH). For Th1 cell differentiation, T cells were cultured with the addition of 100 U/mL of IL-2, 10 μg/mL of anti-IL-4 (clone 11B11) and 10 ng/mL of IL-12 (PEPROTECH). For Th2 cell differentiation, T cells were cultured with the addition of 10 μg/mL of anti-IFNγ (clone XMG1.2) and 10 ng/mL of IL-4 (R&D Systems). For Th17 cell differentiation, T cells were cultured with the addition of 10 ng/mL of IL-6 (eBioscience) and 0.5 ng/mL of TGF-β (PEPROTECH). For Treg culture, T cells were cultured with the addition of 100 U/mL of IL-2 and various concentrations of TGF-β. […] Bile acids, retinoic acid (Sigma) or mitoQ (Focus Biomolecules), or mitoPQ (Sigma) were added either at 0 or 16 h time points. Compounds with low water solubility were sonicated before adding to the culture. Cells were harvested and assayed by flow cytometry on day 3. For ROS and mitochondrial membrane potential detection, cells cultured for 2 days were incubated with 5 μM of mitoSOX (ThermoFisher), 10 μM of DCFDA (Sigma) or 2 μM of JC-1 (ThermoFisher) for 30 min and assayed with flow cytometry.
Flow Cytometry. Cells harvested from in vitro culture or in vivo mice experiments were stimulated with 50 ng/mL PMA (Phorbol 12-myristate 13-acetate, Sigma) and 1 μM ionomycin (Sigma) in the presence of GolgiPlug (BD) for 4 h to determine cytokine expression. After stimulation, cells were stained with cell surface marker antibodies and LIVE/DEAD Fixable dye, Aqua, to exclude dead cells, fixed and permeabilized with a FoxP3/Transcription factor staining kit (eBioscience), followed by staining with cytokine- and/or transcription factor-specific antibodies. All flow cytometry analyses were performed on an LSR II flow cytometer (BD) and data were analyzed with FlowJo software (TreeStar).

[5] = test system: fusion protein of RORγt and Gal4-DBD; assay: RORγt luciferase reporter assay in HEK293 cells; type: cell-based, human; details: ML209 2 μM, bile acids 10 μM
Protocol: as §1
We next examined if 3-oxoLCA physically interacts with the RORγt protein in vitro. A microscale thermophoresis (MST) assay was performed with recombinant human RORγt ligand-binding domain (LBD). […] Next, we examined if 3-oxoLCA modulates the transcriptional activity of RORγt. We assayed the effect of the bile acids on firefly luciferase expression directed by a fusion protein of RORγt and Gal4-DBD (DNA-binding domain) in human embryonic kidney (HEK) 293 cells^14.

[6] = Measurement of lipophilicity (octanol/ammonium bicarbonate partitioning, LC-MS); details: n-octanol / 50 mM ammonium bicarbonate, pH 8
Protocol: Measurement of lipophilicity. Partitioning Method: 2 μL of 10 mM stock solutions of each target compound was added to a 1 mL each of 50 mM ammonium bicarbonate (pH=8), and 1 mL of n-octanol in an Eppendorf tube. The resulting two-phase mixture was vortexed and then shaken for 18 h at 20° C. The two phases were then carefully separated into the aqueous sample (bottom layer), and organic sample (top-layer) and placed separately in autosampler vials and analyzed by LC-MS/MS. LC-MS Method: a Thermo q-Exactive Plus LC-MS equipped with an Ultimate 3000 HPLC was operated in negative ion mode after optimized to detect the [M− H]^− of the bile acids. […] A Dikma Inspire C8 column (3 μm particle size, 100 mm length, 4.6 mm ID) was used for analysis. Each injection was 5 μL, and a constant flow rate of 0.400 L/min was used. The gradient started at 0% B and was held constant for 2 minutes. Then the mobile phase composition was linearly changed to 100% B over 8 minutes and held at 100% for the following 5 minutes. The mobile phase composition was changed to 0% B over the following 0.1 minutes and the system was allowed to equilibrate to starting conditions over 1.9 minutes. Standards of all targets were used to establish retention times. Better than 2 ppm mass accuracy was obtained on all measurements. The LC-MS analysis was done in triplicate, while the partitioning was done once for each target's [M− H]^− ion. Calculation of log D: the total response of target in octanol was divided by the total response in the aqueous phase to get a partitioning coefficient. Then, log base 10 was taken and reported.

For `C[C@H](CCC(=O)O)[C@H]1CC[C@H]2[C@@H]3CC[C@@H]4CC(=O)CC[C@]4(C)[C@H]3CC[C@]12C` [3-oxoLCA, 3-oxolithocholic acid], the “Th17 cell levels after anti-CD3 injection” value [1] was “reduced Th17 cell levels”, the cell proliferation [2] was “do not significantly affect cell proliferation; also recorded: did not affect cell proliferation” and the “T cell receptor (TCR)-mediated activation” value [3] was “do not significantly affect cell proliferation, cell viability, or T cell activation”. For the same compound, the “effect on Treg differentiation induced by isoalloLCA” value ([4]; 3-oxoLCA 20 μM + isoalloLCA 20 μM) was “further enhanced Treg differentiation induced by isoalloLCA in vitro”, the “Treg differentiation (FoxP3 expression)” value ([4]; bile acids 20 μM, 3 days, anti-CD3/28, IL-2) was “did not affect Tregs” and the RORγt reporter activity [5] was “significantly reduced the RORγt reporter activity”. For the same compound, the logD at 18 h [6] was 2.4.
